The text below walks through data of patent US20120190723A1, “VIRAL MODULATORS AND PROCESSES THEREOF” (priority 2010, published 2012).

Entries after “also recorded” stand apart in the source; their conditions may differ. Structures can show the parent of a compound that is named as a salt. Where two headings read alike, the source gives them in different places. Starred links: 1 amine or outer side, 2 acyl side, 3 side chain; linkers in the order of their positions; H or OH if unused. Positions of bridges follow the written chain, without caps; N, C: chain ends. Non-standard residues stand in square brackets, D forms with d. Residues, ends and D or L forms follow the SMILES beside them. Chains are numbered I, II in the order given. Actinocin(9to1) = Cc1c2oc3c(C)ccc(C(=O)[*:1])c3nc-2c(C(=O)[*:2])c(N)c1=O; NMeV = CN[C@H](C(=O)O)C(C)C; Sar = CNCC(=O)O

In series [1] the test system is HIV-1 LTR Tat dependent transcription. As to the kind of experiment: cells. The following applies: Human immunodeficiency virus 1, TZM-bl, read-out: % Inhibition at 1 μM.
Series [2] deals with VEEV TC-83. Type of series: cell-based, Venezuelan Equine Encephalitis Virus. To be noted: 1 μM.
In series [3] the test system is VEEV TC-83. As to the kind of experiment: microbe, parasite or virus in culture. The following applies: for effect on VEEV induced CPE: 1 μM, 48 hours post infection. Type of series: cell-based, Venezuelan Equine Encephalitis Virus.
A further series concerns U87MG astrocytes. To be noted: for cellular viability of BIO analogs: 1 μM.
For series [4], the system named is HIV-1 LTR Tat dependent transcription. The following applies: TZM-bl cells transfected with Tat, compared to the DMSO control.
Series [5] relates to VEEV TC-83. Type of series: in vivo, C3H/HeN mice. To be noted: for survival rate: SQ days −1, 1, 3, 5, BIO 50 mg/kg, BIOder 20 mg/kg, 14 days, vehicle 10%; for survival differential: vs vehicle control.
The next series relates to survivin, BID. Type of series: cell-based.
Series [6] has as its system Rat mixed hippocampal cultures exposed to Tat1-72. As to the kind of experiment: Tat neurotoxicity in rat mixed hippocampal cultures (MTT). Type of series: cell-based. The following applies: for protection against Tat mediated neurodegeneration: 1.0 and 3.0 uM, p<0.05, 500 nM Tat1-72, 18 hours; for neurotoxicity: 5.0 and 10.0 uM. The protocol:
After approximately 18 hours, cell survival may be measured by MTT assay. Statistical significance may be determined by ANOVA, followed by Newman-Keuls post hoc pair-wise comparisons.
In some aspects of embodiments, rat mixed hippocampal cultures may be preincubated with BIO prior to exposure to Tat. Cell death may be analyzed approximately 18 hours after Tat exposure by MTT assay.

The test system of series [7] is VEEV TC-83. As to the kind of experiment: microbe, parasite or virus in culture. Type of series: cell-based. To be noted: Venezuelan equine encephalitis virus, U-87 MG, read-out: IC50, VEEV replication.
Another series is described as follows: in vitro. The following applies: human.
Series [8] addresses T1, GSK-3β (Homo sapiens, UniProt P49841). As to the kind of experiment: GSK-3β immunoprecipitation in vitro kinase assay (U937 cells).
Target sequence in this assay (P49841 whole entry): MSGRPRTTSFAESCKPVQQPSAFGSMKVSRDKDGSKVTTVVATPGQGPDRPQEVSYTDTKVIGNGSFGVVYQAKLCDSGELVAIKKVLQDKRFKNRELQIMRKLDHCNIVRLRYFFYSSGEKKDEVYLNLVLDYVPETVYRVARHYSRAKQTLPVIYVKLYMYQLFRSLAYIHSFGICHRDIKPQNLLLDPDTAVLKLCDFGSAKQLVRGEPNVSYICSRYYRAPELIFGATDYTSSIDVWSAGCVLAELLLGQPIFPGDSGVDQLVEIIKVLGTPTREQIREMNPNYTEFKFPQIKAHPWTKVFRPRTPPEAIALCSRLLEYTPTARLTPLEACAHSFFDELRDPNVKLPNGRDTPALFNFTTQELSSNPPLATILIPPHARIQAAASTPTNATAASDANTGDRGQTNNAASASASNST
For series [9] the following is noted: in vivo.
Series [10] has as its system monocyte/macrophage from two healthy donors and U87MG. The series can be described thus: MTT toxicity in monocyte/macrophages and U87MG. Type of series: cell-based. The following applies: primary cells or cell line.
In series [11] the test system is HIV-1 dual tropic 89.6. As to the kind of experiment: HIV-1 89.6 replication in primary monocyte/macrophages (RT assay). Type of series: cell-based. To be noted: Human immunodeficiency virus 1, Primary macrophage, 168 h; 89.6 infection, RT day 7.
Series [12] has as its system HIV-rtTA KWK (Tat+) and KYK (Tat−) clones. As to the kind of experiment: dox-dependent HIV-rtTA variants (KWK, KYK) in macrophages, RT assay. Type of series: cell-based, HIV-1. The following applies: BIOder 50 nM, dox 1000 ng/ml, RT day 10.
The target in series [13] is T1, GSK-3β. Type of series: biochemical. Set-up: Cells may be lysed and immunoprecipitated with control IgG and/or GSK-3β antibody; endogenous in cells.
Target sequence in this assay (P49841 whole entry, looked up): as the sequence (P49841 whole entry) above
Series [14] has as its system HIV-1 dual tropic 89.6. As to the kind of experiment: HIV-1 89.6 replication in U87MG cells (RT assay). Type of series: cell-based. To be noted: Human immunodeficiency virus 1, U-87 MG, 168 h; 89.6 infection, RT day 7.

As for `Cc1c2oc3c(C)ccc(C(=O)N[C@@H]4C(=O)N[C@H](C(C)C)C(=O)N5CCC[C@H]5C(=O)N(C)CC(=O)N(C)[C@@H](C(C)C)C(=O)O[C@@H]4C)c3nc-2c(C(=O)N[C@@H]2C(=O)N[C@H](C(C)C)C(=O)N3CCC[C@H]3C(=O)N(C)CC(=O)N(C)[C@@H](C(C)C)C(=O)O[C@@H]2C)c(N)c1=O` [Dactiniomycin, Dactinomycin] (I: T[dV]P[Sar][NMeV] / II: T[dV]P[Sar][NMeV]; ester I:1-I:C, II:1-II:C; linker I:N-II:N via Actinocin(9to1)), the inhibition at 1 µM in series [1] worked out at 98%.

On to `Cc1c(Cl)ccc2c1NC(=O)/C2=C1/C(=O)Nc2ccccc21` [Compound 38, 6-chloro-7-methyl-3,3′-biindole-2,2′(1H,1′H)-dione], for which, in the series on VEEV TC-83 [2], the “effect on VEEV (FIG. 11)” value is listed as “VEEV activators”.

As for `Cc1ccc2c(c1Br)/C(=N/NC(=O)Nc1ccccc1)C(=O)N2` [Compound 5, 4-bromo-5-methyl-1H-indole-2,3-dione 3-(N-phenylsemicarbazone)], the “effect on VEEV induced CPE” value in the series with VEEV TC-83 [3] is “increase observed CPE”.

For the compound `COc1ccc(-c2cc(C(=O)N/N=C3/C(=O)Nc4ccc(Br)cc43)[nH]n2)cc1` [Compound 28, N′-(5-bromo-2-oxo-1,2-dihydro-3H-indol-3-ylidene)-3-(4-methoxyphenyl)-1H-pyrazole-5-carbohydrazide], in the series with VEEV TC-83 [3], the “effect on VEEV induced CPE” value was “inhibit CPE”.

Regarding `O=C1Nc2ccc(Br)cc2/C1=N/NC(=O)c1ccc(Cl)cc1Cl` [Compound 16, N′-(5-bromo-2-oxo-1,2-dihydro-3H-indol-3-ylidene)-2,4-dichlorobenzohydrazide], the “cellular viability of BIO analogs” value in the series on U87MG astrocytes was “decrease in cellular viability”.

As to `O=C1Nc2ccccc2/C1=C1/Nc2ccccc2/C1=N\O` [Indirubin-3′-oxime], in series [4], the “% Inhibition at 1 μM” value is on record as 25%.

Take `C=C[C@H]1CN2CC[C@H]1C[C@H]2[C@H](OC(=O)OCC)c1ccnc2ccc(OC)cc12` [Quinine ethyl carbonate]: in series [1], the inhibition at 1 µM came out at 34%.

Regarding `Cc1[nH]c2ccc(Br)cc2c1CC(=O)N/N=C1/C(=O)Nc2ccccc21` [Compound 21, 2-(5-bromo-2-methyl-1H-indol-3-yl)-N′-(2-oxo-1,2-dihydro-3H-indol-3-ylidene)acetohydrazide], in the series with VEEV TC-83 [2], the “effect on VEEV (FIG. 11)” value is “VEEV activators”.

Consider `Cc1cc(C(=O)N/N=C2\C(=O)Nc3ccc(Br)cc32)[nH]n1` [Compound 32, N′-(5-bromo-2-oxo-1,2-dihydro-3H-indol-3-ylidene)-3-methyl-1Hpyrazole-5-carbohydrazide], for which the “cellular viability of BIO analogs” value in the series with U87MG astrocytes is given as “decrease in cellular viability”.

For `Cc1ccc2c(c1Br)C(=NNc1ccccc1)C(=O)N2` [Compound 17, 4-bromo-5-methyl-1H-indole-2,3-dione 3-(phenylhydrazone)], the “effect on VEEV induced CPE” value with VEEV TC-83 [3] is given as “inhibit CPE”.

Take `O=C1Nc2ccc(Cl)cc2/C1=C1\C(=O)Nc2ccc(Br)cc21` [Compound 34, 5-bromo-5′-chloro-3,3′-biindole-2,2′(1H,1′H)-dione]: in the series with U87MG astrocytes, the “cellular viability of BIO analogs” value is given as “decrease in cellular viability”.

Take `O=C1Nc2ccc(Br)cc2/C1=N\NC(=O)c1ccccc1NC(=O)c1ccccc1` [Compound 31, N-(2-{[2-(5-bromo-2-oxo-1,2-dihydro-3H-indol-3-ylidene)hydrazino]carbonyl}phenyl)benzamide]: the “effect on VEEV induced CPE” value with VEEV TC-83 [3] was “inhibit CPE”.

On to `O=C1Nc2c(Br)cc(Br)cc2/C1=N/NC(=O)c1cc(-c2ccccc2)n[nH]1` [Compound 24, N′-(5,7-dibromo-2-oxo-1,2-dihydro-3H-indol-3-ylidene)-3-phenyl-1Hpyrazole-5-carbohydrazide], for which the “effect on VEEV induced CPE” value in the series with VEEV TC-83 [3] was “increase observed CPE”.

On to `O=C1Nc2cc(Br)ccc2/C1=C1/Nc2ccccc2/C1=N\O` [BIO, 6-bromoindirubin-3′-oxime, reference compound], for which, in the series with VEEV TC-83 [5], the survival rate is approximately 30% and the survival differential entry was “approximately 20%”. For the same compound, in the series on survivin, BID, the survivin expression entry is “relatively increase survivin expression”. Besides, in series [6], the “protection against Tat mediated neurodegeneration” value was “significant neuroprotective effects” and the neurotoxicity result is listed as “neurotoxicity observed”. For the same compound, the “LD50 (neurotoxicity)” value in series [6] (rat mixed hippocampal cultures) is reported as “approximately 4 uM”.

Take `O=C1NC(=O)/C(=C2/C(=O)Nc3ccc(Br)cc32)N1` [Compound 33, 5-(5-bromo-2-oxo-1,2-dihydro-3H-indol-3-ylidene)-2,4-imidazolidinedione]: the “cellular viability of BIO analogs” value with U87MG astrocytes is recorded as “decrease in cellular viability”.

As to `Cc1cc2c(cc1Br)NC(=O)/C2=N/N=C1/C(=O)Nc2cc(Br)c(C)cc21` [Compound 6, 6-bromo-5-methyl-1H-indole-2,3-dione 3-[(6-bromo-5-methyl-2-oxo-1,2-dihydro-3H-indol-3-ylidene)hydrazone]], the IC50 with VEEV TC-83 [7] was approximately 500 nM; against GSK-3β [8], approximately 0.03 nM; in the series on VEEV TC-83 [3] (Venezuelan equine encephalitis virus, U-87 MG, read-out: IC50 for inhibition of VEEV induced CPE) it was less than 100 nM; in the series on HIV-1 dual tropic 89.6 [11] it was approximately 4 nM; with HIV-1 dual tropic 89.6 [14] it was approximately 0.5 nM. The CC50 in “in vitro” was more than 100000 nM. Moreover, the “inhibition of GSK-3β kinase activity” value on GSK-3β [8] (at approximately 1 nM, glycogen synthase peptide 2 substrate) is listed as “approximately 90%”. In the series on VEEV TC-83 [3], the “effect on VEEV induced CPE” value is reported as “inhibit CPE; also recorded: particularly strong inhibition”. In addition, in the series with VEEV TC-83 [3] (72 hours post-infection, all concentrations employed), the “cellular viability of VEEV infected cells” value is reported as “relative increase in cellular viability”. Besides, the mouse weight entry in series [9] is on record as “substantially no treatment group showed weight loss”. Further, the “signs of toxicity (lethargy, ruffling of coats, weight loss)” value in series [9] (mouse) is on record as “Substantially no signs of toxicity”. Besides, in series [10], the “Cytotoxic concentration (MTT)” value is more than 10 µM. Besides, the survival rate result with VEEV TC-83 [5] is given as “approximately 50%”. Besides, in the series with VEEV TC-83 [5], the survival differential result is on record as “approximately 40%”. Further, the “viral replication of KWK (Tat+) and KYK (Tat−) clones” value in [12] was “inhibited in the KWK (Tat+) and not KYK (Tat−) clone”. Further, the BID expression entry with survivin, BID is “relatively strong decrease”. In addition, the survivin expression result with survivin, BID was “relative increase in the expression of survivin”. In addition, the GSK3-β kinase activity result at GSK-3β [13] is “much more relatively dramatic influence”. The cellular viability entry with U87MG astrocytes was “no substantial effect on cellular viability”. Also, the “protection against Tat mediated neurodegeneration” value in series [6] is reported as “protective effect”. For the same compound, the neurotoxicity result in [6] was “no neurotoxicity observed”.

For the compound `Cc1ccc2c(c1Br)/C(=N/O)C(=O)N2` [Compound 4, 4-bromo-5-methyl-1H-indole-2,3-dione 3-oxime], the “effect on VEEV (FIG. 11)” value in the series on VEEV TC-83 [2] is recorded as “VEEV activators”.

With `COc1cccc2c1C(=O)c1c(O)c3c(c(O)c1C2=O)C[C@@](O)(C(=O)CO)C[C@@H]3O[C@H]1C[C@H](N)[C@@H](O)[C@H](C)O1` [Epirubicin hydrochloride], in series [1], the inhibition at 1 µM is 17%.

Usually inhibition stands for the share of the control response that was lost under treatment. As a reminder, the % Inhibition is how much of the control response was suppressed. A lower % Inhibition goes with little suppression. As usually defined, the IC50 is the concentration that inhibits the measured activity by half.
